Experimental data from EP4722207A1, “OXOISOINDOLINYL-SUBSTITUTED TETRAHYDROPYRIMIDINEDIONE DERIVATIVE AND USE THEREOF” (Gluetacs Therapeutics (Shanghai) Co., Ltd., priority 2023, dated 2024).

Columns and labels:
Type in all cases: cell-based
Conditions in all cases: compounds at 50 nM and 500 nM, 24 hours
IKZF1 = molecular target: T1, IKZF1 (Homo sapiens, UniProt Q13422+Q96SW2); test: Western-blot assay, substrate protein degradation in hPBMCs: IKZF1
T1 construct: effects of the compounds of the present disclosure on the expression of target proteins in cells; endogenous in cells; host or cells: human PBMCs (hPBMCs)
Method: (§1) Conventional Western blot assay was performed to evaluate the effects of the compounds of the present disclosure on the expression of target proteins in cells. • (1) Cell Seeding and Protein Harvesting: Human peripheral blood mononuclear cells (hPBMCs) at a density of 1x10^6 cells/mL were thawed according to the PBMC Recovery Protocol (Milecell Biotechnologies Inc, Shanghai). […] After 24 hours of compounds treatment, cells were harvested and lysed in RIPA protein lysate containing protease inhibitors on ice for 30 min, followed by centrifugation. The supernatant was aspirated as the extracted total cell protein. The protein concentration of the supernatant was determined using the conventional BCA (Bicinchoninic Acid) assay. • (2) To the collected supernatant, 5X SDS sample loading buffer was added, followed by denaturation at 95°C for 5 minutes. The denatured samples were then separated by SDS-PAGE electrophoresis on a polyacrylamide gel. Proteins were transferred to a nitrocellulose membrane (0.45 µm NC membrane), blocked with blocking buffer at room temperature for 1 hour, and subjected to antibody incubation and development procedures according to the antibody manufacturer's instructions (Cell Signaling Technology).
(§2) Half-Maximal Degradation Concentration value (the drug concentration required for degrading proteins by 50%, abbreviated as DC50) reads method: comparing the grayscale values of Western blot bands from drug-treated samples with those from blank DMSO-treated controls, and identifying the drug concentration range at which the grayscale value is half that of the DMSO-treated control bands.
(§3) DC50 values can be calculated using ImageJ software to measure grayscale values of Western blot bands from drug-treated samples. The concentration-response curve is fitted to estimate the drug concentration corresponding to half the grayscale value.
(§4) Target protein remaining (%) refers to the percentage of target protein remaining in cells after treatment with protein degrader compounds.
(§5) Calculation method for target protein remaining (%): Use ImageJ software to measure grayscale values of Western blot bands from drug (protein degrader)-treated samples. The grayscale value of drug-treated bands is divided by that of internal control protein bands, and the resulting quotient is normalized to obtain the relative percentage of remaining target protein after protein degrader treatment. Target protein degradation rate(%) = 1−target protein remaining(%). [formula]

IKZF3 = molecular target: T2, IKZF3 (Homo sapiens, UniProt Q96SW2+Q9UKT9); test: Western-blot assay, substrate protein degradation in hPBMCs: IKZF3
T2 construct: effects of the compounds of the present disclosure on the expression of target proteins in cells; endogenous in cells; host or cells: human PBMCs (hPBMCs)
Method: as §1, §2, §3, §4, §5

IKZF2 = molecular target: T3, IKZF2 (Homo sapiens, UniProt Q96SW2+Q9UKS7); test: Western-blot assay, substrate protein degradation in hPBMCs: IKZF2
T3 construct: effects of the compounds of the present disclosure on the expression of target proteins in cells; endogenous in cells; host or cells: human PBMCs (hPBMCs)
Method: as §1, §2, §3, §4, §5

WEE1 = molecular target: T4, WEE1 (Homo sapiens, UniProt P30291+Q96SW2); test: Western-blot assay, substrate protein degradation in hPBMCs: WEE1
T4 construct: effects of the compounds of the present disclosure on the expression of target proteins in cells; endogenous in cells; host or cells: human PBMCs (hPBMCs)
Method: as §1, §2, §3, §4, §5

CK1α = molecular target: T5, CK1α (Homo sapiens, UniProt P48729+Q96SW2); test: Western-blot assay, substrate protein degradation in hPBMCs: CK1α
T5 construct: effects of the compounds of the present disclosure on the expression of target proteins in cells; endogenous in cells; host or cells: human PBMCs (hPBMCs)
Method: as §1, §2, §3, §4, §5

GSPT1 = molecular target: T6, GSPT1 (Homo sapiens, UniProt P15170+Q96SW2); test: Western-blot assay, substrate protein degradation in hPBMCs: GSPT1
T6 construct: effects of the compounds of the present disclosure on the expression of target proteins in cells; endogenous in cells; host or cells: human PBMCs (hPBMCs)
Method: as §1, §2, §3, §4, §5

T6 sequence (P15170 whole entry): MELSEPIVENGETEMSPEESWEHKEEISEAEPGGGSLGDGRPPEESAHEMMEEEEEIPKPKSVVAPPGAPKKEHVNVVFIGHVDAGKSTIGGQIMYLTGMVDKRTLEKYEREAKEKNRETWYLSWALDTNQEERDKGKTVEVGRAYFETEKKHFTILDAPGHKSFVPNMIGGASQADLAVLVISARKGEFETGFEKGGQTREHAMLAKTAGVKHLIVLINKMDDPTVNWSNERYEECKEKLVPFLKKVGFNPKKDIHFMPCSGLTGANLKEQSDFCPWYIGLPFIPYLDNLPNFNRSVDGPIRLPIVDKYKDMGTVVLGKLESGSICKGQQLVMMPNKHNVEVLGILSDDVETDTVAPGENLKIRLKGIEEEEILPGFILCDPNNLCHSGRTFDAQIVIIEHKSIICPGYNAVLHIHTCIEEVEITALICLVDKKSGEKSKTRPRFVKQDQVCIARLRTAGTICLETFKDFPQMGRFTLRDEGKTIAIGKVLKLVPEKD
T6 sequence (Q96SW2 whole entry): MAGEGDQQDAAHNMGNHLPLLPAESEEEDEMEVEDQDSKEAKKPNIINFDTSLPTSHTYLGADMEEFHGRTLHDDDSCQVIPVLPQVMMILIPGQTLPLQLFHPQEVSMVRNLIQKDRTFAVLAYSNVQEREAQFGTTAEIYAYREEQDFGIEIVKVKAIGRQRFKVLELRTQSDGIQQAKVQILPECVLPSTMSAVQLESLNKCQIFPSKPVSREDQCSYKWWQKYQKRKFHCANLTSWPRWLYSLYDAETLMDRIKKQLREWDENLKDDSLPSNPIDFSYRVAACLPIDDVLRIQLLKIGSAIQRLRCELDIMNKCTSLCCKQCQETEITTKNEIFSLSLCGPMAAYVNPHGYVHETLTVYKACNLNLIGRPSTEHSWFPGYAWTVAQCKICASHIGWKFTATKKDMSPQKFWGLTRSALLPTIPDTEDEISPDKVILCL
T6 sequence (Q16531 whole entry partner): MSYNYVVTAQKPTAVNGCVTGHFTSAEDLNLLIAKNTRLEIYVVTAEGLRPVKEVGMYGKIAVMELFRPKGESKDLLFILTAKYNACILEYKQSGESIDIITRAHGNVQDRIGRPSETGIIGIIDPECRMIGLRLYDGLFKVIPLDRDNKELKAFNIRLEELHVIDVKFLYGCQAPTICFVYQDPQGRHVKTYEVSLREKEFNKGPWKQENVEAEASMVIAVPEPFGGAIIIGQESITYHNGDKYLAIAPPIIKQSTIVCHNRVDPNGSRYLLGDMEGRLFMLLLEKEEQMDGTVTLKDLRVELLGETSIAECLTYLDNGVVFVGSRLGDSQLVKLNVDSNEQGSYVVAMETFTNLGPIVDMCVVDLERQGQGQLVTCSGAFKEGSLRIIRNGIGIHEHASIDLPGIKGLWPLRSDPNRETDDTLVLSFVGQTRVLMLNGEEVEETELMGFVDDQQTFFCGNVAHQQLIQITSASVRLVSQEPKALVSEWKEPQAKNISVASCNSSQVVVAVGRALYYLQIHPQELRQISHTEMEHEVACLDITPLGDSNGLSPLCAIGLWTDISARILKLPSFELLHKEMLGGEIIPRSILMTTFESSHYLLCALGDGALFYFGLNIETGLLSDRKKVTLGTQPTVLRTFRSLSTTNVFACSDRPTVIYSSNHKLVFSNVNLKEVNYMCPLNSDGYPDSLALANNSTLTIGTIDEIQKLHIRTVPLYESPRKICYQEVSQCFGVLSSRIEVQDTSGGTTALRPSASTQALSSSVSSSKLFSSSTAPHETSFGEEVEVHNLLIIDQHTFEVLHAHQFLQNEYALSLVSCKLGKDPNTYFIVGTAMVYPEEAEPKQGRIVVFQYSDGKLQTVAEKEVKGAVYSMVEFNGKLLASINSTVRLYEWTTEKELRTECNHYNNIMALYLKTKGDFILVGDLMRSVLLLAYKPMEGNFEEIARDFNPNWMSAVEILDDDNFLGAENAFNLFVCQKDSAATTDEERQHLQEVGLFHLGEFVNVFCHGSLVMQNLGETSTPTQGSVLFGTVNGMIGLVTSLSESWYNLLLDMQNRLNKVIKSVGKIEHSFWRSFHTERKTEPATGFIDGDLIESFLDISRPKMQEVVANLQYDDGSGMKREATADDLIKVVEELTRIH
T3 sequence (Q9UKS7 whole entry): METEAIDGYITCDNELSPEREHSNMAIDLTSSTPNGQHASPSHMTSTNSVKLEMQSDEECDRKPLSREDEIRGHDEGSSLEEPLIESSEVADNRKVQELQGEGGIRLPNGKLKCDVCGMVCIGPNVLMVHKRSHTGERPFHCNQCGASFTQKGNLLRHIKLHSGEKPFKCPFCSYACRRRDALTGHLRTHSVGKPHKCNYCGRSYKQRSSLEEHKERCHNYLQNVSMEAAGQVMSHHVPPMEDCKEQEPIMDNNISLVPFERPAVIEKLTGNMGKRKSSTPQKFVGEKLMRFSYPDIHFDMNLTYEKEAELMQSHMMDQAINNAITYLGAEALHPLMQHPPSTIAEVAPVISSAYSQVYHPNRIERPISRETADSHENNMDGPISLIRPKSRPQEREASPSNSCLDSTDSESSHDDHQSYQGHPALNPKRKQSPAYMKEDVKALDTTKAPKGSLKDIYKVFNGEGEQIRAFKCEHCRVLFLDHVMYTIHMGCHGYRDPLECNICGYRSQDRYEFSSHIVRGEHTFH
T3 sequence (Q96SW2 whole entry): as the sequence (Q96SW2 whole entry) above
T3 sequence (Q16531 whole entry partner): as the sequence (Q16531 whole entry partner) above
T4 sequence (P30291 whole entry): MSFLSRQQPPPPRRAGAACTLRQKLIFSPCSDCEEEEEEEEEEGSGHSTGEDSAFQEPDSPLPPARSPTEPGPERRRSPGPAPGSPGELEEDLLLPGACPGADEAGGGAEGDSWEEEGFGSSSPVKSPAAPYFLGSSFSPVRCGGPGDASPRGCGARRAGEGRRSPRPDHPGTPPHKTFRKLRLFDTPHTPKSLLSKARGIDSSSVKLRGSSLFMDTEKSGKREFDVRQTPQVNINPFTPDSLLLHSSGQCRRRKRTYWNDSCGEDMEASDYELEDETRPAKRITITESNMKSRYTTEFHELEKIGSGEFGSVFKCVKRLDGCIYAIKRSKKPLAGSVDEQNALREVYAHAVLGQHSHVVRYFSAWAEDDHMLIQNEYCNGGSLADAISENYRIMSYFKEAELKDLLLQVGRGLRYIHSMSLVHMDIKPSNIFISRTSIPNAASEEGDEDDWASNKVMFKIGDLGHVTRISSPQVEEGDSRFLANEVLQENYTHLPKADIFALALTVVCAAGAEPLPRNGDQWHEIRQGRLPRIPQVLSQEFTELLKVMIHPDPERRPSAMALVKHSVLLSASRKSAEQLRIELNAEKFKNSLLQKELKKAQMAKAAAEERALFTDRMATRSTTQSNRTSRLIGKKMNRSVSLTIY
T4 sequence (Q96SW2 whole entry): as the sequence (Q96SW2 whole entry) above
T4 sequence (Q16531 whole entry partner): as the sequence (Q16531 whole entry partner) above
T5 sequence (P48729 whole entry): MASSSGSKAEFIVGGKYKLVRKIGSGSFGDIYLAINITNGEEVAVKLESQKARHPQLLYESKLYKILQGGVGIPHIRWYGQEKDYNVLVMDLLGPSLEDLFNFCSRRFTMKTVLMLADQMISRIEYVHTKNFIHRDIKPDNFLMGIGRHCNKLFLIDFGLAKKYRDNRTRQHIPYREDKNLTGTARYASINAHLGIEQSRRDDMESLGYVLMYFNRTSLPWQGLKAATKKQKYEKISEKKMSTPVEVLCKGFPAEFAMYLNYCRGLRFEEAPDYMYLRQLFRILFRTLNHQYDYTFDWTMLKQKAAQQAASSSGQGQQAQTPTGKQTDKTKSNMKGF
T5 sequence (Q96SW2 whole entry): as the sequence (Q96SW2 whole entry) above
T5 sequence (Q16531 whole entry partner): as the sequence (Q16531 whole entry partner) above
T2 sequence (Q9UKT9 whole entry): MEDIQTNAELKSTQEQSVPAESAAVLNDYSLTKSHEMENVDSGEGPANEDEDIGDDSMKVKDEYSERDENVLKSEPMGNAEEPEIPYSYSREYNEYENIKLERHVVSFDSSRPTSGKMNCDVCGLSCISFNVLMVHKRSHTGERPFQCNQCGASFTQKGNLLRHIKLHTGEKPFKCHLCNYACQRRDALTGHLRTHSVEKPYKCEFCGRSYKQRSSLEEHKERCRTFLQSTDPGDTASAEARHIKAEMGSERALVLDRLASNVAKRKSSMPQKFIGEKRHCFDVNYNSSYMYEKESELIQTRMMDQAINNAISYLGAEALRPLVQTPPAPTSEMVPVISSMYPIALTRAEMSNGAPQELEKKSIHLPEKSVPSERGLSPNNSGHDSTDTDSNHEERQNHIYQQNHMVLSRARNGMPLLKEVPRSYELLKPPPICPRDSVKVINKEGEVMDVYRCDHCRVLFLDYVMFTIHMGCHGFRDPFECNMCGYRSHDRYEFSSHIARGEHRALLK
T2 sequence (Q96SW2 whole entry): as the sequence (Q96SW2 whole entry) above
T2 sequence (Q16531 whole entry partner): as the sequence (Q16531 whole entry partner) above

Structure (SMILES) | IKZF1 substrate protein remaining % (IKZF1) | IKZF3 substrate protein remaining % (IKZF3) | IKZF2 substrate protein remaining % (IKZF2) | WEE1 substrate protein remaining % (WEE1) | CK1α substrate protein remaining % (CK1α) | GSPT1 substrate protein remaining % (GSPT1)
O=C1CCN(N2Cc3cc(CN4CCN(c5cccc(F)n5)CC4)ccc3C2=O)C(=O)N1 [GT-05130, 1-(5-((4-(6-fluoropyridin-2-yl)piperazin-1-yl)methyl)-1-oxoisoindolin-2-yl)dihydropyrimidine-2,4(1H,3H)-dione] | A ("A" is defined as 0% ≤ substrate protein remaining % ≤ 80%) | A ("A" is defined as 0% ≤ substrate protein remaining % ≤ 80%) | A ("A" is defined as 0% ≤ substrate protein remaining % ≤ 80%) | A ("A" is defined as 0% ≤ substrate protein remaining % ≤ 80%) | A ("A" is defined as 0% ≤ substrate protein remaining % ≤ 80%) | A ("A" is defined as 0% ≤ substrate protein remaining % ≤ 80%)
O=C1CCN(N2C(=O)c3ccc(CN4CCN(C(c5ccccc5)c5ccncc5)CC4)cc3C2=O)C(=O)N1 (stereo not drawn) [GT-06378, 2-(2,4-dioxotetrahydropyrimidin-1(2H)-yl)-5-((4-(phenyl(pyridin-4-yl)methyl)piperazin-1-yl)methyl)isoindoline-1,3-dione] | B ("B" is defined as 80%< substrate protein remaining %≤ 100%) | A ("A" is defined as 0% ≤ substrate protein remaining % ≤ 80%) | A ("A" is defined as 0% ≤ substrate protein remaining % ≤ 80%) | A ("A" is defined as 0% ≤ substrate protein remaining % ≤ 80%) | B ("B" is defined as 80%< substrate protein remaining %≤ 100%) | B ("B" is defined as 80%< substrate protein remaining %≤ 100%)
O=C1CCN(N2C(=O)c3ccc(CN4CCN(c5ccncc5)CC4)cc3C2=O)C(=O)N1 [GT-07073, 2-(2,4-dioxotetrahydropyrimidin-1(2H)-yl)-5-((4-(pyridin-4-yl)piperazin-1-yl)methyl)isoindoline-1,3-dione] | B ("B" is defined as 80%< substrate protein remaining %≤ 100%) | B ("B" is defined as 80%< substrate protein remaining %≤ 100%) | B ("B" is defined as 80%< substrate protein remaining %≤ 100%) | A ("A" is defined as 0% ≤ substrate protein remaining % ≤ 80%) | B ("B" is defined as 80%< substrate protein remaining %≤ 100%) | B ("B" is defined as 80%< substrate protein remaining %≤ 100%)
O=C1CCN(N2Cc3cc(CN4CC=C(c5ncccc5F)CC4)ccc3C2=O)C(=O)N1 [GT-06395, 1-(5-((3-fluoro-3',6'-dihydro-[2,4'-bipyridin]-1'(2'H)-yl)methyl)-1-oxoisoindolin-2-yl)dihydropyrimidine-2,4(1H,3H)-dione] | B ("B" is defined as 80%< substrate protein remaining %≤ 100%) | B ("B" is defined as 80%< substrate protein remaining %≤ 100%) | B ("B" is defined as 80%< substrate protein remaining %≤ 100%) | B ("B" is defined as 80%< substrate protein remaining %≤ 100%) | A ("A" is defined as 0% ≤ substrate protein remaining % ≤ 80%) | A ("A" is defined as 0% ≤ substrate protein remaining % ≤ 80%)
Cc1cccc(N2CCN(Cc3ccc4c(c3)C(=O)N(N3CCC(=O)NC3=O)C4=O)CC2)n1 [GT-05352, 2-(2,4-dioxotetrahydropyrimidin-1(2H)-yl)-5-((4-(6-methylpyridin-2-yl)piperazin-1-yl)methyl)isoindoline-1,3-dione] | B ("B" is defined as 80%< substrate protein remaining %≤ 100%) | B ("B" is defined as 80%< substrate protein remaining %≤ 100%) | A ("A" is defined as 0% ≤ substrate protein remaining % ≤ 80%) | B ("B" is defined as 80%< substrate protein remaining %≤ 100%) | B ("B" is defined as 80%< substrate protein remaining %≤ 100%) | A ("A" is defined as 0% ≤ substrate protein remaining % ≤ 80%)
